# Results reported in patent US4582823A, “Method for treating schizophrenia and medicaments therefor” (Warner-Lambert Company, priority 1984, dated 1986).
# “Also recorded” adds a separate entry of the source. Read-outs that look alike come from different tables or passages of the source.
# Assays:
# [1] = system: haloperidol-induced dystonia in Cebus monkeys; settings: for # showing dystonia/Total: time 0
# Experimental: (§1) On test days, animals were given N^6 -(2,2-diphenylethyl)adenosine before or after haloperidol. Drugs were prepared as suspensions in 0.2% Methocel for oral and IP injection. Solutions for IM injections of haloperidol were made using lactic acid and of the adenosine using ethanol.
# Sprague-Dawley male rats = assay: rat locomotor activity (darkened actophotometer, 30 minutes); type: in vivo; settings: for Locomotor Activity, % Of Control ± SEM: 1 hr before test
# Experimental: Sprague-Dawley male rats were used.
# Each animal was then placed in a darkened actophotometer and locomotor activity was recorded automatically by a microcomputer for 30 minutes. Locomotor activity data were compared to the mean response of vehicle treated control and were expressed as percentage of activity relative to control.
# [2] = system: haloperidol-induced dystonia in Cebus monkeys; assay: Effect of N^6-(2,2-diphenylethyl)adenosine and haloperidol given together orally (capsule or gavage) on dystonia in Cebus monkeys; settings: for # showing dystonia/Total: haloperidol 0.5 PO capsule, time 0
# Experimental: as §1
# [3] = system: haloperidol-induced dystonia in Cebus monkeys; assay: Attempted reversal of haloperidol-induced dystonia in sensitized Cebus monkeys; type: in vivo, Cebus monkeys (Cebus appella); settings: for # Reversed/Total: adenosine 8 mpk IM
# Experimental: as §1
structure (smiles),measurement,setting,value
"O=C(CCCN1CCC(O)(c2ccc(Cl)cc2)CC1)c1ccc(F)cc1 [Haloperidol, reference compound]",dystonic reactions in sensitized monkeys,"[1]; Cebus monkey, haloperidol 0.2 mpk PO",dystonic reactions were consistently manifest
same,# showing dystonia/Total,"[1]; adenosine 0 mpk IP, haloperidol 0.05 mpk IM, +30 Min.",5/5
same,onset of action (dystonia),"[1]; monkey, in vivo",3 to 7 min
same,onset of action (dystonia),"[1]; monkey, in vivo, po",60 to 180 min
same,"Locomotor Activity, % Of Control ± SEM","Sprague-Dawley male rats; oral, Vehicle 5 ml/kg + HPD 0.1 mg/kg, n=8 (run with 3 mg/kg adenosine)",80.4 ± 10.2 % Of Control
same,"Locomotor Activity, % Of Control ± SEM","Sprague-Dawley male rats; oral, Vehicle 5 ml/kg + HPD 0.1 mg/kg, n=9 (run with 1 mg/kg adenosine)",108.6 ± 8.6 % Of Control
same,"Locomotor Activity, % Of Control ± SEM","Sprague-Dawley male rats; oral, Vehicle 5 ml/kg + HPD 0.3 mg/kg, n=9 (run with 1 mg/kg adenosine)",46.0 ± 7.2 % Of Control
same,"Locomotor Activity, % Of Control ± SEM","Sprague-Dawley male rats; oral, Vehicle 5 ml/kg + HPD 0.3 mg/kg, n=17 (run with 3 mg/kg adenosine)",44.0 ± 4.5 % Of Control
same,"Locomotor Activity, % Of Control ± SEM","Sprague-Dawley male rats; oral, Vehicle 5 ml/kg + HPD 1.0 mg/kg, n=9 (run with 1 mg/kg adenosine)",21.8 ± 2.9 % Of Control
same,"Locomotor Activity, % Of Control ± SEM","Sprague-Dawley male rats; oral, Vehicle 5 ml/kg + HPD 1.0 mg/kg, n=17 (run with 3 mg/kg adenosine)",18.0 ± 2.5 % Of Control
same,"Locomotor Activity, % Of Control ± SEM","Sprague-Dawley male rats; oral, Vehicle 5 ml/kg + HPD 3.0 mg/kg, n=9 (run with 3 mg/kg adenosine)",8.2 ± 2.1 % Of Control
same,monkeys with dystonia,[2]; haloperidol alone 0.5 mg/kg in a capsule,5 of 5
same,# showing dystonia/Total,[2]; no adenosine,5/5
"OC[C@H]1O[C@@H](n2cnc3c(NCC(c4ccccc4)c4ccccc4)ncnc32)[C@H](O)[C@@H]1O [N^6-(2,2-Diphenylethyl)adenosine]",animals in which haloperidol-induced dystonia was not blocked,"[1]; Cebus monkey, adenosine 8 mg/kg IM, haloperidol 0.5 mg/kg PO",3/6
same,blocking of haloperidol-induced dystonia by IM route (in words),"[1]; Cebus monkey, adenosine IM versus other routes",less effective in blocking haloperidol-induced dystonia than when administered by other routes
same,intensity of dystonia in animals displaying dystonia after combined treatment,"[1]; Cebus monkey, adenosine IP + haloperidol, relative to absence of the adenosine",less intense than those seen in the absence of the adenosine
same,prevention of development of dystonia (in words),"[1]; Cebus monkey, adenosine IP together with haloperidol PO",prevented the development of dystonia in a dose dependent fashion
same,# showing dystonia/Total,"[1]; adenosine 0.5 mpk IP, haloperidol 0.5 mpk PO",5/5
same,# showing dystonia/Total,"[1]; adenosine 1.5 mpk IP, haloperidol 0.5 mpk PO",4/6
same,# showing dystonia/Total,"[1]; adenosine 5 mpk IP, haloperidol 0.05 mpk IM, +30 Min.",0/6
same,# showing dystonia/Total,"[1]; adenosine 5 mpk IP, haloperidol 0.5 mpk PO",1/6
same,# showing dystonia/Total,"[1]; adenosine 20 mpk IP, haloperidol 0.05 mpk IM, +30 Min.",0/6
same,# showing dystonia/Total,"[1]; adenosine 20 mpk IP, haloperidol 0.5 mpk PO",0/6
same,depression induced by the adenosine,"[1]; monkey, in vivo",induced depression prior to the expected time of onset of the effects of haloperidol
same,onset of action (depression),"[1]; monkey, in vivo, ip",5 to 10 min
same,prevention of dystonia (conclusion),"[1]; sensitized Cebus monkeys, adenosine administered prior to haloperidol",prevented the dystonia normally produced by haloperidol
same,effect on severity of established dystonia,"[3]; Cebus monkey, adenosine 8 mpk IM after dystonias induced by haloperidol (IM or PO)",no effect on the severity of dystonia
same,reversal of ongoing dystonia (conclusion),"[3]; Cebus monkey, adenosine IM",did not reverse ongoing dystonia induced by haloperidol
same,# Reversed/Total,[3]; +30 Min. after haloperidol 0.05 IM,0/6
same,# Reversed/Total,[3]; +90 Min. after haloperidol 0.5 PO,0/6
same,effect on haloperidol induced inhibition of rat locomotor activity (conclusion),Sprague-Dawley male rats; combination with haloperidol,enhanced haloperidol induced inhibition of rat locomotor activity; also recorded: additive effect in combination with haloperidol
same,"Locomotor Activity, % Of Control ± SEM","Sprague-Dawley male rats; oral, adenosine 1 mg/kg + HPD 0.1 mg/kg, n=9",92.0 ± 2.8 % Of Control
same,"Locomotor Activity, % Of Control ± SEM","Sprague-Dawley male rats; oral, adenosine 1 mg/kg + HPD 0.3 mg/kg, n=9",40.7 ± 4.9 % Of Control
same,"Locomotor Activity, % Of Control ± SEM","Sprague-Dawley male rats; oral, adenosine 1 mg/kg + HPD 1.0 mg/kg, n=9",10.8 ± 2.6 % Of Control
same,"Locomotor Activity, % Of Control ± SEM","Sprague-Dawley male rats; oral, adenosine 1 mg/kg + Vehicle 5 ml/kg, n=9",93.8 ± 8.9 % Of Control
same,"Locomotor Activity, % Of Control ± SEM","Sprague-Dawley male rats; oral, adenosine 3 mg/kg + HPD 0.1 mg/kg, n=8",49.1 ± 10.0 % Of Control
same,"Locomotor Activity, % Of Control ± SEM","Sprague-Dawley male rats; oral, adenosine 3 mg/kg + HPD 0.3 mg/kg, n=17",21.6 ± 5.0 % Of Control
same,"Locomotor Activity, % Of Control ± SEM","Sprague-Dawley male rats; oral, adenosine 3 mg/kg + HPD 1.0 mg/kg, n=17",9.8 ± 2.1 % Of Control
same,"Locomotor Activity, % Of Control ± SEM","Sprague-Dawley male rats; oral, adenosine 3 mg/kg + HPD 3.0 mg/kg, n=9",4.3 ± 1.3 % Of Control
same,"Locomotor Activity, % Of Control ± SEM","Sprague-Dawley male rats; oral, adenosine 3 mg/kg + Vehicle 5 ml/kg, n=17",58.7 ± 5.2 % Of Control
same,alteration of haloperidol-induced inhibition of spontaneous locomotion,"Sprague-Dawley male rats; oral, adenosine 1.0 mg/kg + haloperidol",did not significantly alter the dose-related inhibition of spontaneous locomotion caused by haloperidol
same,enhancement of haloperidol locomotor inhibition,"Sprague-Dawley male rats; oral, adenosine 3.0 mg/kg + haloperidol 0.1 and 0.3 mg/kg",enhanced the locomotor inhibition
same,alteration of locomotion,"Sprague-Dawley male rats; oral, adenosine alone 1.0 mg/kg",did not significantly alter locomotion
same,reduction of locomotion,"Sprague-Dawley male rats; oral, adenosine alone 3.0 mg/kg",50%
same,effect on development or severity of dystonias (in words),"[2]; Cebus monkey, adenosine together with haloperidol orally by capsule",did not appreciably affect the development or severity of dystonias
same,animals with marked reduction in the severity of dystonia,[2]; adenosine 5 mg/kg PO + haloperidol 0.5 mg/kg in a solution by gavage,4 of 5
same,# showing dystonia/Total,[2]; adenosine 5 mpk PO capsule,5/6
same,"prevention of dystonia, same capsule (conclusion)",[2]; adenosine and haloperidol in the same capsule,did not prevent dystonia induced by haloperidol
same,monkeys with dystonia,[2]; haloperidol 0.5 mg/kg with adenosine 5 mg/kg in a capsule,5 of 6
same,"severity of dystonia, gavage (conclusion)",[2]; solution of adenosine and haloperidol by gavage,reduced severity of dystonia
